According to paper PMC5739799 (Oncotarget, 2017):
Where two headings read alike, the source gives them in different places.

Assays:
[1] = tested on: HCC-PDX model 10; assay: Patient-derived HCC xenograft model 10, tumor growth; format: in vivo, BALB/c nude mice; conditions: for Mean TV: day 12, R 10 / S 30 mg/kg/day oral; for RTV: end of study (RTV analysis day R 40, S 30)
Protocol: (§1) The PDX studies were carried out by WuXi AppTec (Shanghai, China). HCC-PDX models were originally established from surgically resected tumor tissue that was implanted in 6–8-week-old female BALB/c nude mice. Animal studies were performed according to the guidelines approved by the Institutional Animal Care and Use Committee of Wuxi AppTec, which follow the guidance of the Association for the Assessment and Accreditation of Laboratory Animal Care. Animals were routinely monitored for their health status and their body weights. Treatment was suspended and/or doses reduced at body weight losses >10%. Animals were euthanized when the tumor size exceeded 2000 mm^3. Pieces from tumor xenografts (∼30 mm^3) from passages 4–8 (ST1) were implanted subcutaneously at the right flank, and tumors were grown to an average size of about 150–200 mm^3. […] Tumor size was measured twice weekly using caliper measurements. Tumor volume (mm^3) was calculated using the formula 0.5 a × b^2, where a and b are the long and short diameters of the tumor, respectively. TGI was assessed either by calculating the ratio of the mean tumor volumes of treated and control groups or by determination of the RTV, which relates tumor volumes at any given day of treatment to the volume at the first treatment day.
(§2) In the syngenic orthotopic H129 model, differences in survival times between groups were analyzed for significance using log-rank tests. Analysis of tumor volumes of the HCC-PDX models was performed with log2-transformed values on defined days of measurement based on the assumption of their log-normal distribution. […] All respective statistical test results were derived from a common linear model that allows for individual variances in the different groups. The adjustment for multiple testing was carried out using Šidák correction at a significance level of 0.05. Back transformation of the mean difference of log2-transformed tumor volumes led to the ratios of the compared groups, whereby ratios of 1 reflect no difference in tumor volumes and ratios below or above 1 reflect smaller or larger tumor volumes, respectively, of the respective second group. The analyses of RTV were carried out in a similar fashion without the log2 transformation of values. Bead-based western data were analyzed (described in [15]) using the MEV 4.8.1 software package. A p-value <0.05 was regarded as significant. All statistical analyses were performed with SAS® 9.4 [34].

[2] = tested on: HCC-PDX model 189; assay: Patient-derived HCC xenograft model 189, tumor growth; format: in vivo, BALB/c nude mice; conditions: for Mean TV: day 21, R 10 / S 30 mg/kg/day oral starting dose; for RTV: end of study
Protocol: as §1, §2

[3] = tested on: uHCC progressed on sorafenib treatment; design: method as in PMID 27932229; conditions: patients with uHCC who progressed on sorafenib, cited from earlier work
[4] = tested on: HCC-PDX model 189 xenografts; assay: DigiWest bead-based multiplex western blot of treated xenografts; format: in vivo, BALB/c nude mice; conditions: 24 hours after last dose, sorafenib 30 mg/kg/day
Protocol: For high-content Western analysis, DigiWest was performed as described by Treindl et al.. In brief, xenograft tissue was ground by a Mikro-Dismembrator (Sartorius) and subsequently lysed by the addition of 2× LDS lysis buffer (Life Technologies™) and heated to 95°C for 9 minutes with several vortexing steps. Undissolved material was removed by consecutive centrifugation at 20°C for 2 minutes at 300 x g, 5 minutes at 16,000 x g, and through a QIAshredder homogenizer tube (Qiagen) for 5 minutes at 16,000 x g. Protein concentration was determined by in-gel staining. 3 μL lysate was separated by SDS-PAGE stained with IRDye® Blue and detected with a Li-COR Odyssey Infrared Imaging System (Li-COR Biosciences, Bad Homburg, Germany) at 700 nm. Next, 12 μg protein per sample was separated using 4–12% Bis-Tris gels (Life Technologies™) according to the manufacturer’s instructions. Blotting onto PVDF membranes (Millipore) was performed under standard conditions. Proteins immobilized on the blotting membrane were biotinylated (NHS-PEG12-Biotin, Thermo Scientific) and individual sample lanes were cut into 96 strips each (height 0.5 mm each, strip width 7.5 mm) using an electronic cutting tool (Silhouette SD). Each individual strip was placed in a separate well of a 96-well plate, and protein was eluted for 2 hours in 10 μL elution buffer (8 M urea, 1% Triton-X100 in 100 mM Tris-HCl, pH 9.5). After the addition of 90 μL of dilution buffer (5% BSA in PBS, 0.02% sodium azide, 0.05% Tween-20), 96 different Neutravidin-coated Luminex bead sets (40,000 beads/well) were added to the individual wells, and eluted biotinylated proteins were captured on the bead surface during overnight incubation. After incubation, the Luminex beads were pooled, washed, and stored in storage buffer (1% BSA, 0.05% Tween-20, 0.05% sodium azide in PBS) at 4°C.
For antibody incubation, an aliquot of the bead pool was transferred into an assay plate and 30 μL of diluted western blot antibody in assay buffer (Blocking Reagent, Roche Applied Science; 0.05% Tween 20, 0.02% sodium azide, 0.2% milk powder) was added per well. 116 antibody incubations on 12 samples were performed overnight at 4°C. For read-out, beads were washed twice with 100 μL of PBST before species-specific PE-labeled secondary antibodies (Jackson) were added in 30 μL of assay buffer for 1 hour. […]
DigiWest analysis was performed as previously described. In brief, data generated by the Luminex instrument were analyzed using a dedicated analysis tool that visualizes the fluorescent signals as bar graphs and identifies antibody-specific peaks. […] After background correction, specific signal intensities are calculated as the integral of the identified peak.

[5] = tested on: unresectable HCC (uHCC); conditions: patients with uHCC; placebo 7.9 months; cited from earlier work
[6] = tested on: unresectable HCC (uHCC); conditions: placebo 4.2 months; cited from earlier work

Compound: CNC(=O)c1cc(Oc2ccc(NC(=O)Nc3ccc(Cl)c(C(F)(F)F)c3)c(F)c2)ccn1 [Regorafenib]
- RTV Differences of least square-means, regorafenib vs sorafenib ([1]; RTV analysis day R 40, S 30): -99,327
- log TV Ratio, compound vs vehicle (T/C) ([1]; day 12): 0.15
- log TV Ratio, regorafenib vs sorafenib ([1]; day 12): 0.53
- Mean TV [1]: 332.11 mm^3
- log TV Differences of least square-means, compound vs vehicle ([1]; day 12, log2-transformed TV): -27,077
- log TV Differences of least square-means, regorafenib vs sorafenib ([1]; day 12, log2-transformed TV): -0.9111
- RTV [1]: 9.15
- RTV Differences of least square-means, compound vs vehicle ([2]; day 21): -31,656
- RTV Differences of least square-means, regorafenib vs sorafenib ([2]; day 21): -0.2628
- log TV Ratio, compound vs vehicle (T/C) ([2]; day 21): 0.42
- log TV Ratio, regorafenib vs sorafenib ([2]; day 21): 0.88
- Mean TV [2]: 322.88 mm^3
- log TV Differences of least square-means, compound vs vehicle ([2]; day 21, log2-transformed TV): -12,395
- log TV Differences of least square-means, regorafenib vs sorafenib ([2]; day 21, log2-transformed TV): -0.1791
- RTV ([2]; day 21): 2.39
- Hazard ratio for OS vs placebo ([3]; 95% CI 0.50, 0.79): 0.63
- Median OS ([3]; placebo 7.8 months): 10.6 months

Compound: CNC(=O)c1cc(Oc2ccc(NC(=O)Nc3ccc(Cl)c(C(F)(F)F)c3)cc2)ccn1 [Sorafenib]
- Mean TV [1]: 607.16 mm^3
- log TV Differences of least square-means, compound vs vehicle ([1]; day 12, log2-transformed TV): -17,966
- RTV [1]: 13.39
- RTV Differences of least square-means, compound vs vehicle ([2]; day 21): -29,028
- Mean TV [2]: 351.96 mm^3
- log TV Differences of least square-means, compound vs vehicle ([2]; day 21, log2-transformed TV): -10,604
- RTV ([2]; day 21): 2.66
- FGF-1 protein expression vs vehicle [4]: downregulated
- Full-length PARP protein expression vs vehicle [4]: significantly downregulated
- Mst2 protein expression vs vehicle [4]: downregulated
- cdc2-pY15 protein expression vs vehicle [4]: downregulated
- Median OS [5]: 10.7 months
- Median OS [6]: 6.5 months
